Data as given in patent publication US20060069132A1, “Azolecarboxamide herbicides” (priority 2004, published 2006).

Tests used:
rice [1] = test: Test C flooded paddy test; format: in vivo, Oryza sativa
In short: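 Injury scored visually against controls on a 0 (no effect) to 100 (complete control) scale, 12 to 14 days after treatment in greenhouse. Flooded paddy plants treated at 2-leaf stage; postemergence plants at 1- to 4-leaf stage, 2 to 18 cm tall.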

Surinam grass = test: Test C pre-/postemergence herbicide test; format: in vivo, Urochloa decumbens
In short: (§1)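 Pre- and postemergence application, solvent/surfactant formulation; post at 1- to 4-leaf stage (2–18 cm). Greenhouse 12–14 d. Visual rating vs controls, 0 = no effect, 100 = complete control.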

kochia = test: Test C pre-/postemergence herbicide test; format: in vivo, Kochia scoparia
In short: as §1

large crabgrass = test: Test C pre-/postemergence herbicide test; format: in vivo, Digitaria sanguinalis
In short: as §1

goosegrass = test: Test C pre-/postemergence herbicide test; format: in vivo, Eleusine indica
In short: as §1

rice [2] = test: Test B pre-/postemergence herbicide test; format: in vivo, Oryza sativa
In short: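 Greenhouse pot assay with simultaneous preemergence (treated seed) and postemergence (2–18 cm seedlings) applications of surfactant-containing, non-phytotoxic solvent formulations. Response scored visually 13–15 days later on a 0–100 scale, 100 meaning complete control.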

soybean = test: Test C pre-/postemergence herbicide test; format: in vivo, Glycine max
In short: as §1

velvetleaf = test: Test C pre-/postemergence herbicide test; format: in vivo, Abutilon theophrasti
In short: as §1

pigweed = test: Test C pre-/postemergence herbicide test; format: in vivo, Amaranthus retroflexus
In short: as §1

johnsongrass = test: Test C pre-/postemergence herbicide test; format: in vivo, Sorghum halepense
In short: as §1

[3] = 250 g ai/ha, scale 0-100, preemergence
[4] = 500 g ai/ha, scale 0 to 100 (0 no effect, 100 complete control), visual, 12 to 14 days, preemergence
[5] = 62 g ai/ha, preemergence, scale 0 to 100
[6] = 125 g ai/ha, scale 0 (no effect) to 100 (complete control), visual, 12 to 14 days, preemergence
[7] = 250 g ai/ha, scale 0 to 100 (0 no effect, 100 complete control), visual, 12 to 14 days, preemergence
[8] = Preemergence, 500 g ai/ha, scale 0 to 100, 0 no effect, 100 complete control

Question: With `CCc1nn(C(C)(C)C)cc1C(=O)Nc1cc(C(=O)N(C)C)ccn1` [Compound 293] as the compound, how does the “Rice plant response rating” value (rice [1]; 62 g ai/ha, scale 0 to 100) read?
Answer: Its value is 0.

Question: And the “Rice plant response rating” value (rice [1]; 125 g ai/ha, scale 0 to 100 (0 no effect, 100 complete control))?
Answer: The value was 30.

Question: What about the “Rice plant response rating” value (rice [1]; 250 g ai/ha, scale of 0 to 100, 0 is no effect, 100 is complete control) of the same compound?
Answer: Its value is 65.

Question: What about the “Plant response rating, Rice” value (rice [1]; 500 g ai/ha, visual rating after 12 to 14 days, scale 0 to 100 (0 no effect, 100 complete control)) of the same compound?
Answer: Its value is 80.

Question: And the “Plant response rating, Surinam Grass” value (Surinam grass; [3])?
Answer: Its value is 100.

Question: And the “Plant response rating, Surinam Grass” value (Surinam grass; [4])?
Answer: The value was 100.

Question: What about the “Plant response rating, Kochia” value (kochia; [5]) of the same compound?
Answer: Its value is 100.

Question: And the “Plant response rating, Kochia” value (kochia; [6])?
Answer: Its value is 100.

Question: What about the “Plant response rating, Kochia” value (kochia; [3]) of the same compound?
Answer: Its value is 100.

Question: And the “Plant response rating, Kochia” value (kochia; [4])?
Answer: Its value is 100.

Question: What about the “Plant response rating, Crabgrass, Large” value (large crabgrass; [5]) of the same compound?
Answer: The value was 95.

Question: And the “Plant response rating, Crabgrass, Large” value (large crabgrass; [6])?
Answer: Its value is 95.

Question: What about the “Plant response rating, Crabgrass, Large” value (large crabgrass; [3]) of the same compound?
Answer: Its value is 100.

Question: What about the “Plant response rating, Crabgrass, Large” value (large crabgrass; [4]) of the same compound?
Answer: The value was 100.

Question: And the “Plant response rating, Goosegrass” value (goosegrass; [5])?
Answer: Its value is 65.

Question: What about the “Plant response rating, Goosegrass” value (goosegrass; [6]) of the same compound?
Answer: Its value is 85.

Question: What about the “Plant response rating, Goosegrass” value (goosegrass; [3]) of the same compound?
Answer: The value was 95.

Question: And the “Plant response rating, Goosegrass” value (goosegrass; [4])?
Answer: The value was 100.

Question: And the “Rice plant response rating (0 to 100 scale)” value (rice [2]; 125 g ai/ha, 0 = no effect, 100 = complete control, preemergence)?
Answer: The value was 90.

Question: And the “Plant response rating, Rice” value (rice [2]; 500 g ai/ha, visual rating, 0 = no effect, 100 = complete control, preemergence)?
Answer: Its value is 100.

Question: And the “Plant response rating, Soybean” value (soybean; [5])?
Answer: The value was 0.

Question: What about the “Plant response rating, Soybean” value (soybean; [3]) of the same compound?
Answer: Its value is 90.

Question: What about the “Plant response rating, Soybean” value (soybean; [4]) of the same compound?
Answer: The value was 100.

Question: And the “Plant response rating, Velvetleaf” value (velvetleaf; [5])?
Answer: Its value is 80.

Question: And the “Plant response rating, Velvetleaf” value (velvetleaf; [3])?
Answer: Its value is 100.

Question: And the “Plant response rating, Velvetleaf” value (velvetleaf; [4])?
Answer: The value was 100.

Question: And the “Plant response rating, Pigweed” value (pigweed; [5])?
Answer: The value was 20.

Question: What about the “Plant response rating, Pigweed” value (pigweed; [6]) of the same compound?
Answer: The value was 85.

Question: What about the “Plant response rating, Pigweed” value (pigweed; [3]) of the same compound?
Answer: The value was 95.

Question: What about the “Plant response rating, Pigweed” value (pigweed; [4]) of the same compound?
Answer: The value was 100.

Question: What about the “Plant response rating, Johnsongrass” value (johnsongrass; [5]) of the same compound?
Answer: Its value is 65.

Question: And the “Plant response rating, Johnsongrass” value (johnsongrass; [6])?
Answer: The value was 95.

Question: What about the “Plant response rating, Johnsongrass” value (johnsongrass; [3]) of the same compound?
Answer: Its value is 100.

Question: What about the “Plant response rating, Johnsongrass” value (johnsongrass; [4]) of the same compound?
Answer: Its value is 100.

Question: What does the source list for `CCN(C)C(=O)c1cccc(NC(=O)c2cc(C(C)(C)C)nn2CC)c1` [Compound 48]?
Answer: Rice plant response rating (rice [1]; 16 g ai/ha, scale 0 to 100): 0; Rice plant response rating (rice [1]; 31 g ai/ha, scale 0 to 100): 0; Rice plant response rating (rice [1]; 62 g ai/ha, scale 0 to 100 (0 no effect, 100 complete control)): 0; Rice plant response rating (rice [1]; 125 g ai/ha, scale of 0 to 100, 0 is no effect, 100 is complete control): 20; Plant response rating (0 = no effect, 100 = complete control), Surinam Grass (Surinam grass; 62 g ai/ha, preemergence): 0; Plant response rating, Surinam Grass (Surinam grass; [6]): 5; Plant response rating, Surinam Grass (Surinam grass; [7]): 30; Surinam Grass plant response rating (Surinam grass; [8]): 60; Plant response rating (0 = no effect, 100 = complete control), Kochia (kochia; 62 g ai/ha, preemergence): 10; Plant response rating, Kochia (kochia; [6]): 60; Plant response rating, Kochia (kochia; [7]): 80; Kochia plant response rating (kochia; [8]): 100; Plant response rating (0 = no effect, 100 = complete control), Crabgrass, Large (large crabgrass; 62 g ai/ha, preemergence): 0; Plant response rating, Crabgrass, Large (large crabgrass; [6]): 30; Plant response rating, Crabgrass, Large (large crabgrass; [7]): 70; Crabgrass, Large plant response rating (large crabgrass; [8]): 90; Plant response rating (0 = no effect, 100 = complete control), Goosegrass (goosegrass; 62 g ai/ha, preemergence): 20; Plant response rating, Goosegrass (goosegrass; [6]): 70; Plant response rating, Goosegrass (goosegrass; [7]): 90; Goosegrass plant response rating (goosegrass; [8]): 90; Rice plant response rating (rice [2]; Preemergence, 500 g ai/ha, scale 0 to 100): 60; Plant response rating, Rice (rice [2]; preemergence, 125 g ai/ha, 0 to 100 scale, 0 is no effect, 100 is complete control): 10; Plant response rating (0 = no effect, 100 = complete control), Soybean (soybean; 62 g ai/ha, preemergence): 0; Plant response rating, Soybean (soybean; [6]): 0; Plant response rating, Soybean (soybean; [7]): 0; Soybean plant response rating (soybean; [8]): 30; Plant response rating (0 = no effect, 100 = complete control), Velvetleaf (velvetleaf; 62 g ai/ha, preemergence): 0; Plant response rating, Velvetleaf (velvetleaf; [6]): 0; Plant response rating, Velvetleaf (velvetleaf; [7]): 10; Velvetleaf plant response rating (velvetleaf; [8]): 70; Plant response rating (0 = no effect, 100 = complete control), Pigweed (pigweed; 62 g ai/ha, preemergence): 100; Plant response rating, Pigweed (pigweed; [6]): 100; Plant response rating, Pigweed (pigweed; [7]): 100; Pigweed plant response rating (pigweed; [8]): 100; Plant response rating (0 = no effect, 100 = complete control), Johnsongrass (johnsongrass; 62 g ai/ha, preemergence): 10; Plant response rating, Johnsongrass (johnsongrass; [6]): 20; Plant response rating, Johnsongrass (johnsongrass; [7]): 50; Johnsongrass plant response rating (johnsongrass; [8]): 85
